# Assay results reported in patent US10653747B2, “ApoE mimetic peptides and higher potency to clear plasma cholesterol” (UAB RESEARCH FOUNDATION, priority 2014, dated 2020).
# Ahx = NCCCCCC(=O)O
# Tests used:
# cells = test: Uptake and degradation of peptide-associated VLDL by cells; type: cell-based; settings: peptide-associated VLDL compared to VLDL alone, in the absence of apoE
# From the text: (§1) To test the hypothesis that a minimal arginine-rich Apo E receptor binding domain (141-150) was sufficient to enhance low density lipoprotein (LDL) and very low density lipoprotein (VLDL) uptake and clearance when covalently linked to a class A amphipathic helix, a peptide was synthesized in which the receptor binding domain of human Apo E, LRKLRKRLLR (SEQ ID NO:4) (hApo E[141-150] also referred to as “hE”), was linked to 18A, a well characterized high affinity lipid-associating peptide (DWLKAFYDKVAEKLKEAF (SEQ ID NO:5), also referred to as “18A”) to produce a peptide denoted as hApo E[141-150]-18A (also referred to as “hE-18A”) (see U.S. Pat. No. 6,506,880, which is hereby incorporated by reference in its entirety for its teaching of specific Apo E mimetics and their uses). Also synthesized was an end protected analog of hE-18A, denoted Ac-hE18A-NH2. […] The effect of the dual character peptides on the uptake and degradation of human LDL/VLDL by cells was then determined.
# (§2) It was determined that in MEF 1 cells with induced LDL receptors, LDL internalization was enhanced three, five and seven times by Ac-mE-18A-NH2, Ac-hE-18A-NH2, and Ac-hE(R)-18A-NH2 respectively. […]
# [1] = tested on: MEF 1 cells with induced LDL receptors; test: Uptake and degradation of human LDL by cells (LDL internalization, LDL degradation); type: cell-based
# From the text: as §1, §2
# VLDL = test: Interaction of peptide with VLDL, displacement of apo E from VLDL
# Protocol: It was determined that in MEF 1 cells with induced LDL receptors, LDL internalization was enhanced three, five and seven times by Ac-mE-18A-NH2, Ac-hE-18A-NH2, and Ac-hE(R)-18A-NH2 respectively. All three peptides increased degradation of LDL by 100 percent. […] However, only Ac-hE-18A-NH2-associated VLDL enhanced the uptake of VLDL six fold and degradation three fold compared to VLDL alone in spite of the absence of apoE. The LDL binding to fibroblasts in the presence of these peptides was not saturable, however, over the LDL concentration range studied.
# plasma cholesterol = test: Plasma cholesterol reduction in apoE null mice after a single dose; type: in vivo; settings: single dose in saline vehicle, at both 50 and 100 μg/mouse
# Protocol: The study was carried out in apoE null mice (n=4 animals/group). The time points show the plasma cholesterol levels at the indicated times following a single dose administration. A single dose was administered using a saline vehicle.
Substance,enhanced degradation of VLDL (cells),enhanced uptake of VLDL (cells),LDL internalization enhanced [1],increased degradation of LDL [1],displacement of apo E from VLDL (VLDL),reducing plasma cholesterol (plasma cholesterol)
Ac-LRKLRKRLLRDWLKAFYDKVAEKLKEAF-NH2 [Ac-hE-18A-NH2],three,six,five,100%,interacted with VLDL to cause a displacement of apo E from VLDL,–
Ac-Aha-LRRLRRRLLR-DWLKAFYDKVAEKLKEAF-NH2 ({Ac-Ahx}-LRRLRRRLLRDWLKAFYDKVAEKLKEAF-NH2; SMILES CC(=O)NCCCCCC(=O)N[C@@H](CC(C)C)C(=O)N[C@@H](CCCNC(=N)N)C(=O)N[C@@H](CCCNC(=N)N)C(=O)N[C@@H](CC(C)C)C(=O)N[C@@H](CCCNC(=N)N)C(=O)N[C@@H](CCCNC(=N)N)C(=O)N[C@@H](CCCNC(=N)N)C(=O)N[C@@H](CC(C)C)C(=O)N[C@@H](CC(C)C)C(=O)N[C@@H](CCCNC(=N)N)C(=O)N[C@@H](CC(=O)O)C(=O)N[C@@H](Cc1c[nH]c2ccccc12)C(=O)N[C@@H](CC(C)C)C(=O)N[C@@H](CCCCN)C(=O)N[C@@H](C)C(=O)N[C@@H](Cc1ccccc1)C(=O)N[C@@H](Cc1ccc(O)cc1)C(=O)N[C@@H](CC(=O)O)C(=O)N[C@@H](CCCCN)C(=O)N[C@H](C(=O)N[C@@H](C)C(=O)N[C@@H](CCC(=O)O)C(=O)N[C@@H](CCCCN)C(=O)N[C@@H](CC(C)C)C(=O)N[C@@H](CCCCN)C(=O)N[C@@H](CCC(=O)O)C(=O)N[C@@H](C)C(=O)N[C@@H](Cc1ccccc1)C(N)=O)C(C)C) [AC-Aha-[R]hE18A-NH2],–,–,–,–,–,highly effective
"Ac-D-W-L-K-A-F-Y-D-K-V-A-E-K-L-K-E-A-F-NH2 (Ac-DWLKAFYDKVAEKLKEAF-NH2) [Ac-18A-NH2, control peptide; 18A is the lipid-associating peptide …, reference compound]",–,–,–,–,interacted with VLDL to cause a displacement of apo E from VLDL,–
